From PubChem BioAssay AID463203 (Broad Institute, 2010)
Calls of active or inactive are those of the source.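 The calls were made as follows: active = more than half of replicate measurements showing over 20% loss of kinase signal relative to plate controls; inconclusive = some but at most half of replicates over 20% loss; inactive = no replicate over 20% signal loss.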

Target: Glycogen synthase kinase-3 alpha (Homo sapiens) (UniProt P49840)
Assay: concentration-response blocking of human GSK3A – biochemical, luminescence, cell-free homogeneous, retest, dose response (AID 463203)
Conditions: GSK-3 alpha enzyme, ADP-Glo luminescence, 60 min

Glycogen synthase kinase-3 alpha (Homo sapiens), sequence (P49840 whole entry, looked up): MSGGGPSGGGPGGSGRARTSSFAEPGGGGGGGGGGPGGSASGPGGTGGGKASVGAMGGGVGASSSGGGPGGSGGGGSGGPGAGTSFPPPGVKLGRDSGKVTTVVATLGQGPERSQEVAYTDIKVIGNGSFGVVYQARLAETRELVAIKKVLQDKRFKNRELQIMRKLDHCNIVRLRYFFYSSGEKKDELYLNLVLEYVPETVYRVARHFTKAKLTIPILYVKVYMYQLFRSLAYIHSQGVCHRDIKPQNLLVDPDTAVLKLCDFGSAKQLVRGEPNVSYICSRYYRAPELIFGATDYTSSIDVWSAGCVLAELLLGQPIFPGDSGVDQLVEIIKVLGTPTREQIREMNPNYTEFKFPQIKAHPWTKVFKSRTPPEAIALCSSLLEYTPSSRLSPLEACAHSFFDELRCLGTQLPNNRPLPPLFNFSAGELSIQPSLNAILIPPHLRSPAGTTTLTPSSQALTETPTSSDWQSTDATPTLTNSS

Row | SMILES | AC50
1 | Cc1cnn(C(=O)c2ccccc2Br)c1 | > 30 µM (inactive)
2 | CN(c1nc2nonc2nc1NC1CC1)C1CCOC1 (stereo not given) | > 30 µM (inactive)
3 | O=C1NC(c2ccccc2)(C(F)(F)F)C(=O)N1Cc1cccnc1 (stereo not given) | > 30 µM (inactive)
4 | O=C(CSc1ccc(F)cc1)Nc1ccc2c(c1)C(=O)NC2=O | 12.5 µM
5 | CSc1ncccc1-c1nc2ccccc2[nH]1 | > 30 µM (inactive)
6 | CCSc1nnc2ccc(-c3cccs3)nn12 | > 30 µM (inactive)
7 | Nc1nc(SCCOc2ccccc2)n[nH]1 | > 30 µM (inactive)
8 | CNC(=O)CSc1nnc(-c2ccco2)n1-c1ccccc1OC | > 30 µM (inactive)
9 | Clc1ccc(N/N=C/c2ccncc2)cc1Cl | > 30 µM (inactive)
10 | CN1/C(=C\C=[N+](C)c2ccccc2)C(C)(C)c2ccccc21 | > 30 µM (inactive)
11 | O=C1CNC(=S)N1CCCn1ccnc1 | > 30 µM (inactive)
12 | COc1ccc(C2CC(=O)Nc3n[nH]c(-c4ccccc4)c32)cc1OC (stereo not given) | 26.9 µM
13 | O=C(COc1ccccc1F)NC1CC1 | > 30 µM (inactive)
14 | CCOC(=O)C1CCCN(c2c(C(=O)c3ccccc3)cnc3ccccc23)C1 (stereo not given) | > 30 µM (inactive)
15 | O=C(Nc1ncc([N+](=O)[O-])s1)C1CC(=O)N(c2ccc(F)cc2)C1 (stereo not given) | 12.4 µM
16 | Cc1cccc(C)c1OCC(O)CNC(C)(C)C (stereo not given) | > 30 µM (inactive)
17 | COc1ccc(CCNc2ccc(S(=O)(=O)N3CCCC3)cc2[N+](=O)[O-])cc1 | > 30 µM (inactive)
18 | CCOC(=O)c1c(NC(=O)CN2C(=O)NC3(CCCCC3C)C2=O)sc(C)c1CC (stereo not given) | > 30 µM (inactive)
19 | O=Cc1cc(N=Nc2ccc(S(=O)(=O)O)cc2)ccc1O | > 30 µM (inactive)
20 | CC(=O)Nc1ccc(S(=O)(=O)NC(C)c2ccncc2)cc1 (stereo not given) | > 30 µM (inactive)
21 | COC(=O)c1cn(C(=O)c2ccc(Cl)cc2)c2ccccc12 | > 30 µM (inactive)
22 | CCc1ccc(C2CC(c3ccccc3Cl)Nc3nc(N)nn32)cc1 (stereo not given) | > 30 µM (inactive)
23 | c1ccc(-c2nc3ccccc3[nH]2)cc1 | > 30 µM (inactive)
24 | CCOC(=O)N1CCC(N2CCN(S(=O)(=O)c3ccc(OC)cc3)CC2)CC1 | > 30 µM (inactive)
25 | CCOc1cc(/C=N/O)ccc1OCc1ccc([N+](=O)[O-])cc1 | > 30 µM (inactive)
26 | CCOC(=O)CN1CC23C=CC(O2)C(C(=O)O)C3C1=O (stereo not given) | > 30 µM (inactive)
27 | CCN1CCN(CC(=O)Nc2nc3ccc(OC)cc3s2)CC1 | > 30 µM (inactive)

Row | SMILES | AC50
28 | Nc1c(C(=O)NCc2ccco2)c2nc3ccccc3nc2n1CCN1CCOCC1 | > 30 µM (inactive)
29 | CN1/C(=C\C=C(/C#N)C(=O)Nc2ccc(Cl)cc2)C(C)(C)c2ccccc21 | > 30 µM (inactive)
30 | O=C(COc1cccc2cccnc12)N/N=C/c1ccccc1O | > 30 µM (inactive)
31 | Cc1sc2ncnc(NCc3ccco3)c2c1C | > 30 µM (inactive)
32 | O=C(Oc1cccc([N+](=O)[O-])c1)N1CCCCC1 | > 30 µM (inactive)
33 | CCC(=NCCCO)c1c(O)n(-c2ccc(OC)cc2)c(=O)[nH]c1=O | > 30 µM (inactive)
34 | CS(=O)(=O)N1CCN(c2ccccc2NC(=O)c2cccs2)CC1 | > 30 µM (inactive)
35 | CCOc1ccc(C2C3=C(CCCC3=O)Nc3ccc4ncccc4c32)cc1 (stereo not given) | > 30 µM (inactive)
36 | O=C(CNC(=S)N(Cc1ccccc1)Cc1cccnc1)NC1CCCCC1 | > 30 µM (inactive)
37 | NC(=O)c1oc2ccccc2c1NC(=O)c1ccc(F)cc1 | > 30 µM (inactive)
38 | COc1ccccc1C(=O)NC(C)c1ccccc1 (stereo not given) | > 30 µM (inactive)
39 | Cn1c(=O)c2[nH]cnc2n(-c2ccccc2)c1=O | > 30 µM (inactive)
40 | O=c1[nH]cccc1-c1nc2ccccc2[nH]1 | 4.92 µM
41 | O=C(NCCCn1ccnc1)C(F)(F)C(F)(F)C(=O)NCCCn1ccnc1 | > 30 µM (inactive)
42 | Cc1cc(C)c(S(=O)(=O)Nc2ccnc(-c3cccnc3)n2)c(C)c1 | 5.52 µM
43 | COCCCNC(=O)C(=O)NC1CCCCC1C (stereo not given) | > 30 µM (inactive)
44 | Cc1ccccc1Cn1c(-c2ccc(=O)[nH]c2)nc2ccccc21 | > 30 µM (inactive)
45 | O=C(CNC(=O)c1ccccc1)N/N=C/C=C/c1ccccc1 | > 30 µM (inactive)
46 | CCc1ccc(C2C3=C(CC(C)(C)CC3=O)Nc3c2c(=O)[nH]c2nc(C)nn32)cc1 (stereo not given) | > 30 µM (inactive)
47 | O=C(CSc1ccc2nnc(-c3ccccn3)n2n1)N1CCN(c2ccccc2)CC1 | > 30 µM (inactive)
48 | CC[n+]1c(/C=C/N(C)c2ccccc2)n(-c2ccccc2)c2ccc(-c3nc4ccccc4s3)cc21 | > 30 µM (inactive)
49 | CC(=O)Nc1cccc(-c2csc(N)n2)c1 | > 30 µM (inactive)
50 | COCCNc1cc(N)c([N+](=O)[O-])cc1[N+](=O)[O-] | > 30 µM (inactive)
51 | Cc1ccc(N(CC(O)CN2CCCCC2)S(=O)(=O)c2ccc(C)cc2)cc1 (stereo not given) | > 30 µM (inactive)
52 | O=C(NC1=NCCS1)c1ccc(Cl)cc1 | > 30 µM (inactive)
53 | C=CC(=O)Nc1sc2c(c1C(N)=O)CCCC2 | 13.9 µM
54 | CN(C)c1nc2sc3c(c2c(=O)n1C)CC(C)(C)OC3 | > 30 µM (inactive)

Row | SMILES | AC50
55 | COc1ccccc1N1CCN(C(=O)c2cc(-c3ccccc3)on2)CC1 | > 30 µM (inactive)
56 | O=S(=O)(c1ccc(Cl)nc1)N1CCN(Cc2ccc3c(c2)OCO3)CC1 | > 30 µM (inactive)
57 | Cc1c(C(=O)OCCOC(C)C)[nH]c2c1C(=O)CC(C)(C)C2 | 25.4 µM
58 | O=c1[nH]nnc2sc3c(c12)CCCC3 | > 30 µM (inactive)
59 | CN(C)C(=O)Oc1ccc([N+](=O)[O-])cc1 | > 30 µM (inactive)
60 | O=C(Nc1c(C(=O)O)oc2ccc(Br)cc12)c1ccccc1 | 3.44 µM
61 | CCOC(=O)c1nc(NCc2ccccc2F)c2ccccc2n1 | > 30 µM (inactive)
62 | COc1ccc(/C=C/c2nc(N)nc(-c3ccccc3O)n2)cc1OC | > 30 µM (inactive)
63 | COC(=O)C1=C(C)N(C)C(=O)/C1=C\c1ccco1 | > 30 µM (inactive)
64 | COc1cccc(/C=C2\SC(=O)NC2=O)c1OCc1ccc(C(=O)O)cc1 | 26.9 µM
65 | CCOc1ccc(N2C(=O)C3C(c4ccccc4F)NN(C(=O)c4ccc(C)cc4)C3C2=O)cc1 (stereo not given) | > 30 µM (inactive)
66 | COc1cccc(CCNC(=O)c2cc(COc3c(F)cccc3F)on2)c1 | > 30 µM (inactive)
67 | CCOC(=O)c1nc(NCc2ccccc2C)c2ccccc2n1 | > 30 µM (inactive)
68 | Nc1nonc1-n1nnc(C(=O)N/N=C/c2ccc(Cl)cc2Cl)c1CN1CCOCC1 | > 30 µM (inactive)
69 | Cc1nc(N2CCOCC2)nc(N2CCCCC2)c1[N+](=O)[O-] | > 30 µM (inactive)
70 | O=C(c1ccco1)N(Cc1cccc([N+](=O)[O-])c1)c1ccc(Br)cc1 | > 30 µM (inactive)
71 | CN1C(=O)N(C)C2(c3ccccc3)Nn3c(s/c(=C/c4ccccc4)c3=O)=NC12c1ccccc1 (stereo not given) | > 30 µM (inactive)
72 | CCNC(=S)NNC(=O)Cc1ccccc1 | > 30 µM (inactive)
73 | CCOc1ccc(Cn2nnc(C(=O)Nc3cc(C)cc(C)c3)c2N)cc1 | > 30 µM (inactive)
74 | Cc1cccc(C)c1OC(=O)Cc1ccccc1[N+](=O)[O-] | > 30 µM (inactive)
75 | CCN(C(=O)C1CCCN1S(=O)(=O)c1cccc2nsnc12)c1ccccc1 (stereo not given) | 23.9 µM
76 | COc1cccc(CN2CCN(Cc3cc(OC)c(OC)cc3[N+](=O)[O-])CC2)c1 | > 30 µM (inactive)
77 | CC1=[N+](C)c2ccc3ccccc3c2C1(C)C | > 30 µM (inactive)
78 | O=C(COc1ccccc1Br)NC1CC1 | > 30 µM (inactive)
79 | N#CC1=C2SCN(Cc3ccccc3)CN2C(=O)CC1c1ccccc1F (stereo not given) | > 30 µM (inactive)
80 | Cc1cc(N2CCN(c3ccccc3)CC2)n2c(n1)nc1ccccc12 | 4.33 µM
81 | CN(c1ccccc1)c1nc(-n2ccnc2)nc(-n2ccnc2)n1 | 29.3 µM

Row | SMILES | AC50
82 | COc1ccc2nc(NC(=O)C3CCCN3S(=O)(=O)c3ccc(C)cc3)sc2c1 (stereo not given) | > 30 µM (inactive)
83 | Cc1ccc2nc(-c3ccccn3)[nH]c2c1 | > 30 µM (inactive)
84 | CC(C)(C)C(=O)c1cnc(Nc2ccccc2Cl)s1 | > 30 µM (inactive)
85 | COCCCNc1nc2nonc2nc1NCCSC | > 30 µM (inactive)
86 | O=C(NCc1ccc(C(=O)N2CCC3(CC2)OCCO3)cc1)c1ccc2c(c1)OCO2 | > 30 µM (inactive)
87 | O=C(Nc1ccccc1F)Nc1ccccc1OC(F)F | > 30 µM (inactive)
88 | S=C(Nc1ccc(Nc2ccccc2)cc1)Nc1ccccn1 | > 30 µM (inactive)
89 | CCCCc1ccc(NC(=O)N[C@H](C(=O)O)C(C)C)cc1 | > 30 µM (inactive)
90 | COc1ccc(OC)c(/C=C2\Oc3cc(OCC(=O)N4CCC[C@H]4C(=O)O)ccc3C2=O)c1 | > 30 µM (inactive)
91 | CSc1nnc([C@@H](N)Cc2c[nH]c3ccccc23)o1 | > 30 µM (inactive)
92 | O=S(=O)(Nc1ccc(-c2nnc(SCc3ccc(Cl)cc3)o2)cc1)c1ccccc1 | > 30 µM (inactive)
93 | O=[N+]([O-])c1ccc(O)c(/C=N/n2c(-c3ccccc3)n[nH]c2=S)c1 | 26.3 µM
94 | O=C(NCCN1CCN(Cc2ccccc2)CC1)Nc1cc(Cl)cc(Cl)c1 | > 30 µM (inactive)
95 | Cc1cc(C)c[n+](C2=C([O-])c3ccccc3C(=O)/C2=N\S(=O)(=O)c2cccs2)c1 | > 30 µM (inactive)
96 | CCc1c(C)sc(NC(=O)C2CC2c2ccccc2)c1C(N)=O (stereo not given) | > 30 µM (inactive)
97 | O=c1c(OC2OC(CO)C(O)C(O)C2O)c(-c2ccc(O)c(O)c2)oc2cc(O)cc(O)c12 (stereo not given) | > 30 µM (inactive)
98 | Fc1ccccc1-c1n[nH]c(=S)n1/N=C/c1c[nH]c2ccccc12 | 22.5 µM
99 | CC1=C(C(=O)OCc2ccc3c(c2)OCO3)C(c2ccccc2)NC(=O)N1 (stereo not given) | 1.97 µM
100 | C=CCc1cccc(/C=N/n2c(C)nnc2C)c1O | > 30 µM (inactive)
101 | O=C(c1ccc(Cl)cc1)c1cnc(Nc2ccccc2)s1 | > 30 µM (inactive)
102 | COc1cc(SC)ccc1C(=O)Nc1nc(C)cc(C)n1 | > 30 µM (inactive)
103 | N#Cc1c(-c2ccc(F)cc2)c2c([nH]c1=O)-c1ccccc1OC2 | > 30 µM (inactive)
104 | CC1CCCC(C)N1C(=O)COC(=O)Cc1c[nH]c2ccccc12 (stereo not given) | > 30 µM (inactive)
105 | CCOc1ccc(N=C2NC(=O)SC2CC(=O)OC)cc1 (stereo not given) | > 30 µM (inactive)
